Source: patent publication US20150150892A1, “METHODS AND PRODUCTS RELATED TO LUNG CANCER” (Massachusetts Institute of Technology, priority 2012, published 2015)

Experiments:
[1] = tested on: NF-κB transcription factor subunit p65; assay: Immunoblot of nuclear and cytoplasmic p65 in KP cell lines; type: cell-based, mouse; conditions: 5 nM bortezomib, 24 hours, KP1 and KP2 cell lines, vs vehicle control
Method: (§1) FIG. 1. Bortezomib inhibits NF-κB signaling and induces apoptosis in murine lung adenocarcinoma cell lines. (1A) reduction of nuclear p65 level by bortezomib. Two KP (KrasLSL-G12D/wt;p53flox/flox) cell lines (KP1 and KP2) were treated with 5 nM bortezomib (BZ) or vehicle control (ctrl) for 24 hours. Nuclear (N) and cytoplasmic (C) fractions of protein lysates were immunoblotted with the indicated antibodies. NEMO and Parp serve as cytoplasmic and nuclear loading controls, respectively. (1B) quantitative PCR analysis of a subset of NF-κB target genes in 5 nM bortezomib (BZ)-treated KP cells at the indicated time points. Vehicle control is set to 1. (1C) apoptosis in KP and KP^M (KrasLSL-G12D/wt;p53R127H/−) cells induced by bortezomib. Cells were pre-treated with 5 nM bortezomib for 24 hours, and protein lysates were immunoblotted with CC3 and tubulin antibodies. (1D) quantification of cell death in bortezomib-treated cells. Cells were treated with the indicated concentrations of bortezomib for 24 hours, and dead cells were quantified by Trypan blue staining. Error bars are SD (n=3).
Cell pellets were lysed in Laemmli buffer. Equal amounts of protein (16 μg) were separated on 10% SDS-polyacrylamide gels and transferred to polyvinylidene difluoride membranes. […]

KP and KP^M cells [2] = assay: Cleaved caspase 3 (CC3) immunoblot in lung adenocarcinoma cells; type: cell-based, mouse; conditions: 5 nM bortezomib, 24 hours, KP and KP^M cells
Method: as §1
FIG. 17: Bay-117082 induces cell death In KP cells. […] (17B) Bay-117082 induces apoptosis in KP cells. Cells were treated with 10IJM Bay-117082 for 48 hours. Protein lysates were immunoblotted with cleaved caspase 3 (CC3) and Tubulin antibodies.
Cell pellets were lysed in Laemmli buffer. […]

KP and KP^M cells [3] = assay: Trypan blue quantification of cell death; type: cell-based, mouse; conditions: 24 hours, indicated concentrations
Method: as §1
As the NF-κB pathway is known to inhibit apoptosis through its regulation of antiapoptotic genes, we next addressed the cytotoxicity of bortezomib in vitro (6).

KP lung tumors = assay: CC3 immunohistochemistry in KP lung tumors; type: in vivo, mouse
Method: FIG. 4: Bortezomib induces apoptosis in KP lung tumors. (4A and 4B) H&E and CC3 immunohistochemistry staining (×200) in vehicle control- and bortezomib-treated KP (4A) and K (4B) lung tumors. (4C and 4D) quantification of CC3-positive cells in bortezomib-treated KP (4C) and K (4D) lung tumors at indicated time points. “0 hour” represents vehicle control-treated tumors. Error bars are SD (n>10 for each time point).
FIG. 5: Bortezomib increases survival in KP mice. (5A and 5B) Kaplan-Meier survival curve of vehicle control and bortezomib-treated KP (5A) and K (5B) mice. Arrows indicate weekly 1 mg/kg bortezomib regimen. (5C) quantification of lung tumor volume of control- and bortezomib-treated KP mice. From 10 weeks after Adeno-Cre infection, lungs were imaged by microCT to measure individual tumor volumes (n=4). Data points represent means of fold change and SD relative to 10 weeks (set to 1). Arrows indicate bortezomib injection. D, CC3 staining (×200) in lung tumors receiving 3 doses of control (“C”) and 1 final dose of bortezomib (“B,” left) or 4 doses of bortezomib (right). Tumors were harvested 48 hours after the last treatment (n=4).
FIG. 18: Bay-117082 induces apoptosis in KP lung tumors. (18A), H&E and cleaved caspase 3 (CC3) immunohistochemistry staining (200×) in vehicle control and Bay-117082 treated KP lung tumors (10 mg/kg, 48 hrs). (18B) Quantification of CC3 positive cells. Error bars are s.d. (p<0.05).
Mice were sacrificed by carbon dioxide asphyxiation. Lungs were inflated with 4% formalin (neutral buffered formalin), fixed overnight, and transferred to 70% ethanol. Lung lobes were embedded in paraffin and sectioned at 4 μm and stained with H&E for tumor pathologic study. For staining with anti-CC3 antibodies (#9661; Cell Signaling), lung tumor sections were dewaxed, rehydrated, and subjected to high-temperature antigen retrieval—10 minutes of boiling in a pressure cooker in 0.01 M citrate buffer, pH 6.0. […] The number of positive cells per tumor area was quantified using Bioquant software from >10 tumors in ≧3 mice per group (2).

[4] = tested on: advanced NSCLC patients previously treated with chemotherapy; conditions: cited from earlier work

CC(C)C[C@H](NC(=O)[C@H](Cc1ccccc1)NC(=O)c1cnccn1)B(O)O [bortezomib, N-(2-pyrazine) carbonyl-L-phenylalanine-L-leucine boronic acid]
nuclear accumulation of p65 [1]: reduced nuclear accumulation
cleaved caspase 3 (CC3) (KP and KP^M cells [2]): increased cleaved caspase 3
cell death by Trypan blue counting (KP and KP^M cells [3]): caused cell death in a dose-dependent manner
CC3 staining after a final dose in pretreated tumors (KP lung tumors; KP mice, 3 previous doses of bortezomib, sacrificed 48 hours after final dose): no longer demonstrated significant CC3 staining
number of apoptotic (CC3) cells (KP lung tumors; KP tumors, 48 hours after a single dose): increase in the number of apoptotic cells
time course of CC3+ cell number (KP lung tumors; KP tumors, single dose, time-course): peaked at 24 and 48 hours post treatment and diminished at 96 hours
effects in Phase II clinical trials [4]: modest effects
